This is an account of results in patent US7145009B2, “Pirazino(aza)indole derivatives” (priority 1999, dated 2006).

Each structure is given as a SMILES string. Structures can show the parent of a compound that is named as a salt. Where two headings read alike, the source gives them in different places.

Data set [1] addresses T1, h5-HT2A receptor (CHO cells) (Homo sapiens, UniProt P28223).
T1 construct: expressed in transfected cells; host or cells: CHO cells
Description: Functional activity, FLIPR calcium assay, h5-HT2A. The class given is cell-based. The settings on record: for Emax: CHO, read-out: h5-HT2A Relative Efficacy. The protocol:
(§1) The functional activity of compounds of formula (I) was assayed using a Fluorimetric Imaging Plate reader (FLIPR):
(§2) CHO cells expressing either the h5-HT2C or h5-HT2A receptors were counted and plated into standard 96 well microtitre plates before the day of testing to give a confluent monolayer. The following day the cells were dye loaded with the calcium sensitive dye Fluo 3-AM by incubation with serum free culture maintenance media containing pluronic acid and Fluo 3-AM dissolved in DMSO at 37° C. in a CO2 incubator at 95% humidity for approximately 90 minutes. Unincorporated dye was removed by washing with Hanks balanced salt solution containing 20 mM HEPES and 2.5 mM probenecid (the assay buffer) using an automated cell washer to leave a total volume of 100 μl/well.
(§3) The drug (dissolved in 50 μl of assay buffer) was added at a rate of 70 μl/sec to each well of the FLIPR 96 well plate during fluorescence measurements. The measurements are taken at 1 sec intervals and the maximum fluorescent signal was measured (approx 10–15 secs after drug addition) and compared with the response produced by 10 μM 5-HT (defined as 100%) to which it is expressed as a percentage response (relative efficacy). Dose response curves were constructed using Graphpad Prism (Graph Software Inc.).

In data set [2] the target is T2, h5-HT2C receptor (CHO cells) (Homo sapiens, UniProt P28335).
T2 construct: expressed in transfected cells; host or cells: CHO cells
T2 sequence (P28335 33-458): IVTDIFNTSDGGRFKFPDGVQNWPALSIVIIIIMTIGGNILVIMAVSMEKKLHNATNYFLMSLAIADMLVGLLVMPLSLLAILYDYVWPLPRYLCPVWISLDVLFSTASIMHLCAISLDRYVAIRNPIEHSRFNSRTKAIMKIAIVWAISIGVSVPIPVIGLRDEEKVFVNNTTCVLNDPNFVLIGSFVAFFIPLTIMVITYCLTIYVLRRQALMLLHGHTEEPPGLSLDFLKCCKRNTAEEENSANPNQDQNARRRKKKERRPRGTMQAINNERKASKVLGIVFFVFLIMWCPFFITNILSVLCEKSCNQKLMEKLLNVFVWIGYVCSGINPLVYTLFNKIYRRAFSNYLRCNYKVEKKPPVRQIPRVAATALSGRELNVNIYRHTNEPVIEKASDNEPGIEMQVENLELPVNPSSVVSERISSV
Description: Functional activity, FLIPR calcium assay, h5-HT2C. It counts as cell-based. To be noted: for Emax: CHO, read-out: h5-HT2C Relative Efficacy. The protocol: as §1, §2, §3

The target of data set [3] is T3, 5-HT1A receptors (Homo sapiens, UniProt P08908).
T3 sequence (P08908 1-422): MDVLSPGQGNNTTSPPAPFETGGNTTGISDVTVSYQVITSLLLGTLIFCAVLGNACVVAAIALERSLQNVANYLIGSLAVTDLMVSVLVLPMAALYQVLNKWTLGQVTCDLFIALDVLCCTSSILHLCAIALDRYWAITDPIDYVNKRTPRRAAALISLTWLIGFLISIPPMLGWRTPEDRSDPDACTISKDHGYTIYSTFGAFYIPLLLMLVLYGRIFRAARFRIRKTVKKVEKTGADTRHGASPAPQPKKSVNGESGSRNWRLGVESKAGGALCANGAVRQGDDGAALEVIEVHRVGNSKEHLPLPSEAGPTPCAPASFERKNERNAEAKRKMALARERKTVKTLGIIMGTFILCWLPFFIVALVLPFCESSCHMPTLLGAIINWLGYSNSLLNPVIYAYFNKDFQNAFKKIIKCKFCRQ
The settings on record: literature report; cited from earlier work.

Data set [4] deals with food intake. The settings on record: rats, literature reports; cited from earlier work.
The mark [5] stands for this setting: FLIPR, CHO cells, Fluo 3-AM, read-out: h5-HT2C EC50.

T1 sequence (P28223 whole entry): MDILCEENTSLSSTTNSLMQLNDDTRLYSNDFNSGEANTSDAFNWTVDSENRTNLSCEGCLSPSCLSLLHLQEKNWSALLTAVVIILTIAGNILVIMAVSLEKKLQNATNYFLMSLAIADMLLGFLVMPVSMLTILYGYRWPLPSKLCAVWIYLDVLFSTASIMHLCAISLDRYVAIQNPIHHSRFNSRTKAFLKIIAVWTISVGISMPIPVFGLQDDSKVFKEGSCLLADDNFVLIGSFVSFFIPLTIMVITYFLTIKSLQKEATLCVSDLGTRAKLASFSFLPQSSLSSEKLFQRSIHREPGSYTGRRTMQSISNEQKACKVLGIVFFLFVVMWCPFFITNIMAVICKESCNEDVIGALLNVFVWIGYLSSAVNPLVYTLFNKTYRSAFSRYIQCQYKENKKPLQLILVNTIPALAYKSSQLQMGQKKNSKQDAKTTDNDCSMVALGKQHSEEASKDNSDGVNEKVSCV

One may read the melting point as the temperature, or range, at which the solid turns liquid. As for `C[C@H]1CN2c3cc(Cl)ccc3C[C@@H]2CN1` (as salt: hydrochloride) [Example 11, (3S,10aR) 7-Chloro-3-methyl-1,2,3,4,10,10a-hexahydropyrazino[1,2-a]indole hydrochloride], the melting point was 265 °C (dec.).

Regarding `Clc1ccc2c(n1)N1CCNCC1C2` (racemic) (as salt: fumarate) [Example 6, (RS) 7-Chloro-1,2,3,4,10,10a-6-aza-hexahydropyrazino[1,2-a]-7-indole fumarate], the melting point was 148 °C.

As for `Fc1cc2c(cc1Cl)N1CCNCC1C2` (racemic) (as salt: fumarate) [Example 12, (RS) 7-Chloro-8-fluoro-1,2,3,4,10,10a-hexahydropyrazino[1,2-a]indole hemifumarate], the melting point lay within 195 to 197 °C.

As for `CSc1ccc2c(c1)N1CCNCC1C2` (racemic) (as salt: fumarate) [Example 13, (RS) 7(Methylthio)-1,2,3,4,10,10a-hexahydropyrazino[1,2-a]indole fumarate], the melting point is 196 to 198 °C.

Consider `Clc1ccc2c(c1)N1CCNCC1C2` (racemic) (as salt: hydrochloride) [Example 1, (RS) 7-Chloro-1,2,3,4,10,10a-hexahydropyrazino[1,2-a]indole hydrochloride], for which the melting point is 235 °C (dec.).

On to `Clc1ccc2c(c1)CC1CNCCN21` (racemic) (as salt: hydrochloride) [Example 2, (RS) 8-Chloro-1,2,3,4,10,10a-hexahydropyrazino[1,2-a]indole hydrochloride], for which the melting point was 258 to 262 °C (dec.).

For `Clc1cccc2c1CC1CNCCN21` (racemic) (as salt: hydrochloride) [Example 3, (RS) 9-Chloro-1,2,3,4,10,10a-hexahydropyrazino[1,2-a]indole hydrochloride], the melting point was 265 to 269 °C (dec.).

Take `Brc1ccc2c(c1)N1CCNCC1C2` (racemic) (as salt: hydrochloride) [Example 4, (RS) 7-Bromo-1,2,3,4,10,10a-hexahydropyrazino[1,2-a]indole hydrochloride]: the melting point was in the range of 243 to 245 °C.

As usually defined, the EC50 is the midpoint of the concentration-response curve. On to `Clc1ccc2c(c1)CC1CNCCN21` (racemic) [Example 2, (RS) 8-Chloro-1,2,3,4,10,10a-hexahydropyrazino[1,2-a]indole hydrochloride], for which the EC50 came out at 667 nM in data set [1] and 162 nM in data set [2] (setting [5]). Moreover, the Emax was 88% in data set [1] and 84% in data set [2].

On to `Clc1cccc2c1CC1CNCCN21` (racemic) [Example 3, (RS) 9-Chloro-1,2,3,4,10,10a-hexahydropyrazino[1,2-a]indole hydrochloride], for which the EC50 was determined as 1020 nM in data set [1] and 141 nM in data set [2] (setting [5]). For the same compound, the Emax stood at 49% in data set [1] and 82% in data set [2].

In the case of `Brc1ccc2c(c1)N1CCNCC1C2` (racemic) [Example 4, (RS) 7-Bromo-1,2,3,4,10,10a-hexahydropyrazino[1,2-a]indole hydrochloride], the EC50 in data set [1] was 244 nM; in data set [2], 13 nM. Moreover, the Emax in data set [1] is 58%; in data set [2], 100%.

Turning to `Cc1cc2c(cc1Cl)N1CCNCC1C2` (racemic) [Example 5, (RS) 7-Chloro-8-methyl-1,2,3,4,10,10a-hexahydropyrazino[1,2-a]indole fumarate], in data set [1], the EC50 turned out to be 110 nM and the Emax was found to be 87%. Moreover, in data set [2], the EC50 amounted to 20 nM and the Emax was 93%.

With `Clc1ccc2c(n1)N1CCNCC1C2` (racemic) [Example 6, (RS) 7-Chloro-1,2,3,4,10,10a-6-aza-hexahydropyrazino[1,2-a]-7-indole fumarate], the EC50 in data set [1] stood at 1680 nM; in data set [2] (setting [5]), 174 nM. The Emax stood at 47% in data set [1] and 100% in data set [2].

Turning to `Fc1cc2c(cc1Cl)N1CCNCC1C2` (racemic) [Example 12, (RS) 7-Chloro-8-fluoro-1,2,3,4,10,10a-hexahydropyrazino[1,2-a]indole hemifumarate], the EC50 is 106 nM in data set [1] and 22 nM in data set [2]. Also, the values for the Emax in data set [1] and in data set [2] were 74% and 92%, respectively.

As to `CSc1ccc2c(c1)N1CCNCC1C2` (racemic) [Example 13, (RS) 7(Methylthio)-1,2,3,4,10,10a-hexahydropyrazino[1,2-a]indole fumarate], in data set [1], the EC50 worked out at 176 nM and the Emax was 59%. In addition, in data set [2], the EC50 worked out at 86 nM and the Emax worked out at 87%.

In the case of `c1ccc2c(c1)CC1CNCCN21` (centres unmarked) [1,2,3,4,10,10a-Hexahydropyrazino[1,2-a]indole], the “selectivity for 5-HT1A receptors over 5-HT2 (binding affinity)” value in data set [3] is recorded as “ten fold”.

Take `Clc1ccc2c(c1)N1CCNC[C@@H]1C2` [Example 7, (10aS) 7-Chloro-1,2,3,4,10,10a-hexahydropyrazino[1,2-a]indole hydrochloride]: in data set [1], the EC50 was 144 nM and the Emax stood at 67%. Besides, in data set [2], the EC50 worked out at 161 nM and the Emax amounted to 86%.

Consider `Clc1ccc2c(c1)N1CCNC[C@H]1C2` [Example 8, (10aR) 7-Chloro-1,2,3,4,10,10a-hexahydropyrazino[1,2-a]indole hydrochloride], for which the EC50 in data set [1] was 100 nM; in data set [2], 3 nM. The Emax in data set [1] came to 59%; in data set [2], 87%.

Consider `C[C@H]1CN2c3cc(Cl)ccc3C[C@@H]2CN1` [Example 11, (3S,10aR) 7-Chloro-3-methyl-1,2,3,4,10,10a-hexahydropyrazino[1,2-a]indole hydrochloride], for which, in data set [1], the EC50 was 527 nM and the Emax turned out to be 38%. In data set [2], the EC50 is 58 nM and the Emax stood at 92%.

On to `Clc1cccc(N2CCNCC2)c1` [mCPP, m-chlorophenylpiperazine], for which the “effect on food intake” value in data set [4] was “reduce food intake”.
